# According to patent publication EP2241565A1, “Aurora kinase inhibitors compounds” (Universität Leipzig, priority 2009, dated 2010):
# Entries after “also recorded” stand apart in the source; their conditions may differ.
# Legend:
# [1] = system: H2B-GFP/mRFP-αTubulin HeLa cells; test: Time-lapse video microscopy of live cells; type: cell-based, human; settings: 40 µM
# Experimental: Upon treatment, living cells were added to a humidified chamber at 37 °C with 5% CO2 attached to a Carl Zeiss microscope (SN:3834000366) equipped with a Hamamatsu EM-CCD digital camera, controlled by AxioVision 4.6 software. Cells were imaged every 3 or 4.5 min (depending on the number of fields filmed) for over 16 h-24 h. Images were taken with the AxioCam MRm 426205 objective and processed using AxioVision software.
# The increase in the proportion of cells with more than 2n DNA content could be due to several causes: several cycles of DNA replication or cytokinesis errors as shown for cells treated with other Aurora inhibitors. To determine the primary cause for the phenotype produced by (C) and examine whether (A) may interfere with mitosis, we examined live cells by time-lapse video microscopy. To visualize DNA and microtubules we used a HeLa stable cell line expressing H2B-GFP and mRFP-αTubulin. […] The resulting time-lapse images were used to determine the following parameters: (1) the percentage of cell death among non dividing cells (Figure 4A), (2) the percentage of cells entering mitosis (Figure 4B), (3) the outcome of mitosis: normal division (cell division), return to interphase without chromatin segregation and without dividing (no division), cytokinesis failure (division errors), cell death without resolving mitosis (cell death) (Figure 4C), and (4) the length of time spent in mitosis (TIM), defined as the interval between DNA condensation and anaphase resolution (Figure 4D).
# HeLa cells = test: Fixed cell analysis of mitotic phenotypes (fluorescence / immunofluorescence); type: cell-based, human; settings: 40 µM, 24 h
# Experimental: For fixed cell analysis, HeLa or H2B-GFP/mRFP-αTubulin HeLa cells were grown on glass coverslips and treated as described above. Cells were fixed in ice cold methanol and mounted in Mowiol. Alternatively, non fluorescent HeLa were treated and subjected to immunofluorescence with anti-tubulin antibodies (Sigma, DM1A) and Hoechst to stain the DNA. Cells were observed on a Leica DM16000B microscope with the HCX PL APO CS 63x 1.4 objective. Images were taken with a Leica DFC 350FX camera, controlled by Leica Application Suit (LAS-AF 6000) software and processed with Adobe Photoshop.
# To get a better idea about the defects causing cell division failure in cells treated with (C), we examined fixed cells to better visualize the chromosomes and the microtubules. […] In parallel, standard HeLa cells were treated in the same way. The cells were fixed and processed for immunofluorescence with anti-tubulin antibodies to visualize the microtubules and Hoechst to stain the DNA.
# KDR (VEGFR2) = molecular target: T1, KDR (VEGFR2) (Homo sapiens, UniProt P35968); test: RTK-Assay (ELISA, chemiluminescence); type: biochemical; settings: read-out: IC50 KDR (VEGFR 2)
# T1 construct: GST (N); purchased Biomol
# T1 sequence (P35968 20-1356, species assumed): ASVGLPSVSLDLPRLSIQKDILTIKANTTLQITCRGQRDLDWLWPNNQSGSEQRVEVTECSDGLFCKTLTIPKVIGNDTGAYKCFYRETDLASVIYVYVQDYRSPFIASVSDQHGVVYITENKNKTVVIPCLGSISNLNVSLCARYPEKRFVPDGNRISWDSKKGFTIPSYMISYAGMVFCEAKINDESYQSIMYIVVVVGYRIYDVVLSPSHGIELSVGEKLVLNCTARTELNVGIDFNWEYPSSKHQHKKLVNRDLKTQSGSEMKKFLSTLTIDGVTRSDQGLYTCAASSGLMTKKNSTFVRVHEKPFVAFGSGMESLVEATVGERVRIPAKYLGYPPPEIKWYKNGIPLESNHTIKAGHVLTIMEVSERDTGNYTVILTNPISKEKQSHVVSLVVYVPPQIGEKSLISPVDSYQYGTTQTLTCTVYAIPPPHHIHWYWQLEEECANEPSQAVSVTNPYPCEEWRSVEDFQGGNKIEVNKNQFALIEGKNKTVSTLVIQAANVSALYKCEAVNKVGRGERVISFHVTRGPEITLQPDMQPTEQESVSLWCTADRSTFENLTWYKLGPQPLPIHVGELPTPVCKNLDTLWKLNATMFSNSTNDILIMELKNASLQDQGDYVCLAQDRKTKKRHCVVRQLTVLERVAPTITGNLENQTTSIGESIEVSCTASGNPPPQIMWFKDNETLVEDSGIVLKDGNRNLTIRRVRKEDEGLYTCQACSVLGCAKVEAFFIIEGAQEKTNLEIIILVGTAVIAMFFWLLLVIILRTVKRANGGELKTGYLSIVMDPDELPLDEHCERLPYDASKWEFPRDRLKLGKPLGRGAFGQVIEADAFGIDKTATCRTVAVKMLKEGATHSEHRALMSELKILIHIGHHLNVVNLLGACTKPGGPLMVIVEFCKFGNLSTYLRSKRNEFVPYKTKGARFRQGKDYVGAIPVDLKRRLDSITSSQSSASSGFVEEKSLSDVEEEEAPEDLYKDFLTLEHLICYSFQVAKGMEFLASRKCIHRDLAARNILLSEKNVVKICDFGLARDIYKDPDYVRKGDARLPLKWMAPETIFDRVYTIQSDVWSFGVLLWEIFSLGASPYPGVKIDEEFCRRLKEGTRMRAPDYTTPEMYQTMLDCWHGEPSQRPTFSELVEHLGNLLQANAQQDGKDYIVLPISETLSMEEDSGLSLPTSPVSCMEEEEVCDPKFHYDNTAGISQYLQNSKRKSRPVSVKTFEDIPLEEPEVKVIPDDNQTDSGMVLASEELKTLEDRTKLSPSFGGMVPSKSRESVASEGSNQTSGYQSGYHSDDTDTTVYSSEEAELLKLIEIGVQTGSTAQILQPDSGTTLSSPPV
# Experimental: To determine the IC50 of receptor-tyrosine-kinase an assay based on the ELISA-principle using kinases from Biomol (N-terminally fused to GST), POD-coupled antibody from Calbiochem (PY20) and BM chemiluminescence ELISA substrate from Roche was followed.
# In short, a white 96 wells microplate was incubated overnight with 100 µl/well of the substrate solution (poly-Glu-Tyr diluted with PBS to 100 µg/ml) at 4 °C. The solution was removed and the plate was washed twice for 2 min with PBS-T. Afterwards the kinase solution (50 µl/well)( KDR (VEGFR2), 5 ng; Flt4 (VEGFR3), 20 ng; EGFR, 5 ng; IGFR, 15 ng; FGFR, 10 ng and Tie2, 20 ng) and the inhibitor solution (25 µl/well) were added to each well. To perform positive and negative control, 5% aqueous DMSO (25 µl/well) were used instead of inhibitor solution. Addition of ATP solution (25 µl/well) started the reaction, whereas 40 mM MnCl2 solution (25 µl/well) was added to the negative control instead of ATP. After incubation under mild shaking conditions for 30 min at rt the plate was washed with PBS-T (3 x 2 min) and subsequently incubated with antibody solution (anti-Phosphotyrosine-antibody (POD-coupled) diluted 1:10.000 in PBS-T + 0,2% (m/v) BSA)(100 µl/well) for 1 h again while shaking. In the end the plate was washed with PBS-T (3x5 min) and provided with the chemiluminescence substrate (50 µl/well). After 3 min the occurring luminescence was measured using a luminometer. […] For determination of IC50 values, the relative luminescence units per second (RLU/s) were blotted against the inhibitor concentrations. In doing so each concentration measurement was done triplicate and at least 5 different inhibitor concentrations were used to determine IC50 value.
# This assay is based on the ELISA-principle using kinases from Biomol (N-terminally fused to GST), POD-coupled antibody from Calbiochem (PY20) and BM chemiluminescence ELISA substrate from Roche. […]
# For determination of IC50 values, the relative luminescence units per second (RLU/s) were blotted against the inhibitor concentrations. […]
# hTERT-RPE1 cells = test: Cilia disassembly assay; type: cell-based; settings: pretreatment 40 µM, serum stimulation after 48 h starvation
# Experimental: Cilia assembly and disassembly assays were performed as described in Pugacheva et al., Cell 2007, 129, 1351-1363. […] For analysis of cilia disassembly, cilia were assembled by 48 h starvation in Opti-MEM, and disassembled by incubation in DMEM-10% serum. Cells were fixed after 2 and 4 h. […] To visualize the centrosomes and the cilia, fixed cells were immunostained with anti-γ-tubulin (Sigma GTU88) and anti-acetylated-tubulin (Sigma), and DNA was stained with Hoechst.
compound,measurement,setting,value
"CC(C)Nc1nc(-c2ccco2)nc2ccc(/C=C/C(C)(C)O)cc12 [Compound (A), (E)-4-(2-(Furan-2-yl)-4-(isopropylamino)quinazolin-6-yl)-2-methylbut-3-en-2-ol]",cell death among non dividing cells / cell viability,[1],increased cell death rate; also recorded: massive cell death; also recorded: strong effect on cell viability independent of mitosis
same,outcome of mitosis,[1],completed it successfully
"CC(C)Nc1nc(-c2ccco2)nc2ccc(C#CCO)cc12 [Compound (C), 3-(2-(Furan-2-yl)-4-(isoiproipylamino)quinazolin-6-yl)prop-2-yn-l-ol]",mitotic phenotype of fixed cells,HeLa cells,increased formation of multipolar spindles and other abnormal mitotic structures; also recorded: large proportion of abnormal mitotic spindles
same,outcome of mitosis,[1],unable to align their chromosomes and died without entering a new interphase; also recorded: died without returning to interphase or right after an asymmetric segregation
same,"time spent in mitosis (TIM), median",[1],375 min
same,number of cells entering mitosis,[1]; 16 h-24 h,reduced
same,cells entered mitosis,[1]; time-lapse video microscopy,28.8%
same,IC50,KDR (VEGFR2),> 100 µM
same,cilia disassembly,hTERT-RPE1 cells,strongly inhibited; also recorded: impaired
